# From patent publication EP1534672B1, “RETINOL DERIVATIVES, THEIR USE IN THE TREATMENT OF CANCER AND FOR POTENTIATING THE EFFICACY OF OTHER CYTOTOXIC AGENTS” (priority 2002, dated 2004)
# Like-named read-outs stand apart in the source and are kept apart here. Marks after values point to notes of the source that are not given here.
# Tests used:
# Experiment in all cases: Drug cytotoxicity testing (viable cell count, trypan blue exclusion, cell growth inhibition)
# Format in all cases: cell-based
# [1] = system: Human Lung Carcinoma Cell Line A549
# [2] = system: Human Breast Adenocarcinoma Cell Line MDA-MB-231; conditions: for IC50 / inhibition at 0.1 µM / inhibition at 0.01 µM / inhibition at 0.001 µM: Homo sapiens; for IC50: calculated from three concentrations, read-out: IC50 mol/L (a); for inhibition at 0.1 µM / inhibition at 0.01 µM / inhibition at 0.001 µM: read-out: Cell Growth Inhibition, %
# In short: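 A549 cells (10 × 10^3/well) and MDA-MB-231 cells (12 × 10^3/well) were left to adhere for 24 h, then exposed to drugs in medium with 5% FBS for 2 days. Viable cells were counted by trypan blue exclusion after trypsinization. Growth inhibition (%) = (control − test)/control × 100, from three determinations in six replicates each.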
# [3] = system: Human Ovary Adenocarcinoma Cell Line SKOV-3; conditions: alone or in formulation at molar ratio 1:6
# Method: (§1) MDA-MB-231 cells were propagated in MEM culture medium with 2 mM L-glutamine, 10% heat-inactivated fetal bovine serum (FBS) and antibiotics. DU 145 cells were cultured in MEM culture medium containing 2 mM L-glutamine, 1 mM sodium pyruvate, 10% FBS and antibiotics. SKOV-3 cells were cultured in McCoy's 5A culture medium, supplemented with 1,5 mM L-glutamine, 10% FBS and antibiotics. A549 cells were cultured in Ham's F-12 culture medium with 1 mM L-glutamine, 10% FBS and antibiotics. All media and supplements were purchased from Sigma-Aldrich (St.Louis, MO, USA). Cell propagation of all lines was carried out in Falcon™ 25 cm^2 cultivation flasks (Becton Dickinson Labware).
# (§2) Drug cytotoxicity testing was carried out with using Falcon™ 96-well cultivation plates for adherent cells (Becton Dickinson Labware). These plates were seeded by cells either at 12 × 10^3 MDA-MB-231 cells/well, or at 12 × 10^3 DU 145 cells/well, or at 14 × 10^3 SKOV-3 cells/well, or at 10 × 10^3 A549 cells/well in a volume of 200 µL/well.
# (§3) The cell cultures in cultivation plates were allowed to adhere for 24 hour of incubation. On day 1 after cell seeding, 2 µL solutions of the drugs to be tested in medium with 5% FBS was added to the cultures. In the control cultures, 2 µL of medium with 5% FBS was added as solvent control. The cells were incubated for 2 consecutive days. At the end of the incubation period adherent cells were detached by trypsinization and the number of viable cells was counted using trypan blue exclusion test and a hemocytometer. All data were derived from an average of three determinations each in six replicates. The results were expressed as mean cell number ± SE and the differences between control and test series evaluated by means of Student's t-test. The drug cytotoxicity was evaluated based on the extent of cell growth inhibition. The cell growth inhibition of the tested drugs was calculated as follows: Cell growth inhibition,% = (Control-TestSeries)/(Control) × 100 [formula]
# [4] = system: Human Prostate Carcinoma Cell Line DU 145; conditions: alone or in formulation at molar ratio 1:6
# Method: as §1, §2, §3
# [5] = cytotoxic drug 10^-7 mol/L (100 nM), alone or in formulation at molar ratio 1:6, working solutions in medium with 5% FBS, listed as docetaxel, trihydrate
# [6] = cytotoxic drug 10^-7 mol/L (100 nM), alone or in formulation at molar ratio 1:6, working solutions in medium with 5% FBS, trihydrate
# [7] = cytotoxic drug 10^-7 mol/L (100 nM), alone or in formulation at molar ratio 1:6, working solutions in medium with 5% FBS, trihydrate, 0.1 µM
# [8] = cytotoxic drug 10^-8 mol/L, alone or in formulation at molar ratio 1:6, working solutions in medium with 5% FBS
# [9] = cytotoxic drug 10^-9 mol/L, alone or in formulation at molar ratio 1:6, working solutions in medium with 5% FBS
# [10] = cytotoxic drug alone 10^-7 mol/L, average of positive controls in medium with 5% FBS, normal saline and saline with 2,3 mM CaCl2
# [11] = cytotoxic drug alone 10^-8 mol/L, average of positive controls in medium with 5% FBS, normal saline and saline with 2,3 mM CaCl2
# [12] = cytotoxic drug alone 10^-9 mol/L, average of positive controls in medium with 5% FBS, normal saline and saline with 2,3 mM CaCl2
# [13] = cytotoxic drug 10^-7 mol/L (100 nM), working solutions in medium with 5% FBS, listed as docetaxel, trihydrate
# [14] = cytotoxic drug 10^-7 mol/L (100 nM), working solutions in medium with 5% FBS, trihydrate
# [15] = cytotoxic drug 10^-7 mol/L (100 nM), working solutions in medium with 5% FBS, trihydrate, 0.1 µM
# [16] = cytotoxic drug 10^-8 mol/L, working solutions in medium with 5% FBS
# [17] = cytotoxic drug 10^-9 mol/L, working solutions in medium with 5% FBS
structure (smiles),measurement,setting,value
"CC(=O)O[C@@]12CO[C@@H]1C[C@H](O)[C@@]1(C)C(=O)[C@H](O)C3=C(C)[C@@H](OC(=O)[C@H](O)[C@@H](NC(=O)OC(C)(C)C)c4ccccc4)C[C@@](O)([C@@H](OC(=O)c4ccccc4)[C@H]21)C3(C)C [Docetaxel, (2R,3S)-N-carboxy-3-phenylisoserine, N-tert-butyl ester, 13-ester with 5β-20-epoxy-1,2α ,4,7β,10β,13α -hexahydroxytax-11-en-9-one 4-acetate 2-benzoate, trihydrate]",inhibition at 0.1 µM,"[1]; Homo sapiens, A549, cytotoxic drug 10^-7 mol/L (100 nM), alone or in formulation at molar ratio 1:6, working solutions in medium with 5% FBS",80.3%
same,inhibition at 0.01 µM,"[1]; Homo sapiens, A549, cytotoxic drug 10^-8 mol/L, alone or in formulation at molar ratio 1:6, working solutions in medium with 5% FBS",71.4%
same,inhibition at 0.001 µM,"[1]; Homo sapiens, A549, cytotoxic drug 10^-9 mol/L, alone or in formulation at molar ratio 1:6, working solutions in medium with 5% FBS",37.5%
same,inhibition at 0.1 µM,"[1]; Homo sapiens, A549, cytotoxic drug alone 10^-7 mol/L, average of positive controls in medium with 5% FBS, normal saline and saline with 2,3 mM CaCl2",80.3%
same,inhibition at 0.01 µM,"[1]; Homo sapiens, A549, cytotoxic drug alone 10^-8 mol/L, average of positive controls in medium with 5% FBS, normal saline and saline with 2,3 mM CaCl2",71%
same,inhibition at 0.001 µM,"[1]; Homo sapiens, A549, cytotoxic drug alone 10^-9 mol/L, average of positive controls in medium with 5% FBS, normal saline and saline with 2,3 mM CaCl2",36%
same,IC50,"[1]; Homo sapiens, A549, as concentration of cytotoxic drug, alone or in formulation at molar ratio 1:6, medium with 5% FBS, calculated from three concentrations, read-out: IC50 mol/L (a)",2.2 nM
same,"Tumor Cell Number, × 10^3",[1]; [5],10.6 ± 0.72 × 10^3
same,"Tumor Cell Number, × 10^3",[1]; [6],10.5 ± 0.97 × 10^3
same,"Cell Growth Inhibition, %",[1]; [7],80.8* %
same,"Tumor Cell Number, × 10^3",[1]; [8],15.6 ± 0.49 × 10^3
same,"Tumor Cell Number, × 10^3",[1]; [9],34.1 ± 2.07 × 10^3
same,"Tumor Cell Number, × 10^3",[1]; [10],11.0±0.73 × 10^3
same,"Tumor Cell Number, × 10^3",[1]; [11],16.2±0.75 × 10^3
same,"Tumor Cell Number, × 10^3",[1]; [12],35.7±1.51 × 10^3
same,IC50,"[2]; MDA-MB-231, as concentration of cytotoxic drug, alone or in formulation at molar ratio 1:6, medium with 5% FBS",3.6 nM
same,inhibition at 0.1 µM,"[2]; MDA-MB-231, cytotoxic drug 10^-7 mol/L (100 nM), alone or in formulation at molar ratio 1:6, working solutions in medium with 5% FBS",73.3%
same,inhibition at 0.01 µM,"[2]; MDA-MB-231, cytotoxic drug 10^-8 mol/L, alone or in formulation at molar ratio 1:6, working solutions in medium with 5% FBS",58.1%
same,inhibition at 0.001 µM,"[2]; MDA-MB-231, cytotoxic drug 10^-9 mol/L, alone or in formulation at molar ratio 1:6, working solutions in medium with 5% FBS",38.7%
same,inhibition at 0.1 µM,"[2]; MDA-MB-231, cytotoxic drug alone 10^-7 mol/L, average of positive controls in medium with 5% FBS, normal saline and saline with 2,3 mM CaCl2",76.5%
same,inhibition at 0.01 µM,"[2]; MDA-MB-231, cytotoxic drug alone 10^-8 mol/L, average of positive controls in medium with 5% FBS, normal saline and saline with 2,3 mM CaCl2",56.3%
same,inhibition at 0.001 µM,"[2]; MDA-MB-231, cytotoxic drug alone 10^-9 mol/L, average of positive controls in medium with 5% FBS, normal saline and saline with 2,3 mM CaCl2",36.4%
same,IC50,"[2]; MDA-MB-231, cytotoxic drug alone, average of positive controls",4.6 nM
same,"Tumor Cell Number, × 10^3",[2]; [5],15.4 ± 1.02 × 10^3
same,"Tumor Cell Number, × 10^3",[2]; [6],13.7 ± 1.03 × 10^3
same,"Cell Growth Inhibition, %",[2]; [7],75.4* %
same,"Tumor Cell Number, × 10^3",[2]; [8],23.4 ± 2.15 × 10^3
same,"Tumor Cell Number, × 10^3",[2]; [9],34.2 ± 2.28 × 10^3
same,"Tumor Cell Number, × 10^3",[2]; [10],13.6±0.72 × 10^3
same,"Tumor Cell Number, × 10^3",[2]; [11],25.3±1.18 × 10^3
same,"Tumor Cell Number, × 10^3",[2]; [12],36.8±1.70 × 10^3
same,inhibition at 0.1 µM,"[3]; Homo sapiens, SK-OV-3, cytotoxic drug 10^-7 mol/L (100 nM), working solutions in medium with 5% FBS",68.7%
same,inhibition at 0.01 µM,"[3]; Homo sapiens, SK-OV-3, cytotoxic drug 10^-8 mol/L, working solutions in medium with 5% FBS",55.5%
same,inhibition at 0.001 µM,"[3]; Homo sapiens, SK-OV-3, cytotoxic drug 10^-9 mol/L, working solutions in medium with 5% FBS",34.2%
same,IC50,"[3]; Homo sapiens, SK-OV-3, as concentration of cytotoxic drug, medium with 5% FBS, calculated from three concentrations, read-out: IC50 mol/L (a)",5.2 nM
same,"Tumor Cell Number, × 10^3",[3]; [13],16.1 ± 0.94 × 10^3
same,"Tumor Cell Number, × 10^3",[3]; [14],16.8 ± 0.80 × 10^3
same,"Cell Growth Inhibition, %",[3]; [15],67.8* %
same,"Tumor Cell Number, × 10^3",[3]; [16],23.2 ± 2.19 × 10^3
same,"Tumor Cell Number, × 10^3",[3]; [17],34.3 ± 2.01 × 10^3
same,inhibition at 0.1 µM,"[4]; Homo sapiens, DU-145, cytotoxic drug 10^-7 mol/L (100 nM), working solutions in medium with 5% FBS",74.5%
same,inhibition at 0.01 µM,"[4]; Homo sapiens, DU-145, cytotoxic drug 10^-8 mol/L, working solutions in medium with 5% FBS",51.8%
same,inhibition at 0.001 µM,"[4]; Homo sapiens, DU-145, cytotoxic drug 10^-9 mol/L, working solutions in medium with 5% FBS",34.7%
same,IC50,"[4]; Homo sapiens, DU-145, as concentration of cytotoxic drug, medium with 5% FBS, calculated from three concentrations, read-out: IC50 mol/L (a)",8 nM
same,"Tumor Cell Number, × 10^3",[4]; [13],14.2 ± 0.85 × 10^3
same,"Tumor Cell Number, × 10^3",[4]; [14],10.8 ± 0.94 × 10^3
same,"Cell Growth Inhibition, %",[4]; [15],74.0* %
same,"Tumor Cell Number, × 10^3",[4]; [16],20.0 ± 1.16 × 10^3
same,"Tumor Cell Number, × 10^3",[4]; [17],27.1 ± 1.07 × 10^3
